Common to all, as to experiment: NCI anticancer screen, dose series, 48 h
The test system of assay [1] is SK-OV-3 ovarian.
Assay [2] deals with HCT-116 colon.
The subject of assay [3] is SK-MEL-5 melanoma.
Assay [4] relates to IGROV1 ovarian.
In assay [5] the test system is RXF 393 renal.
The subject of assay [6] is SK-MEL-28 melanoma.
In assay [7] the test system is MCF7 breast.
For assay [8], the system named is LOX IMVI melanoma.
Assay [9] relates to M14 melanoma.
The subject of assay [10] is OVCAR-8 ovarian.

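Tested at 5 concentrations; 48 h exposure; 96-well plates; endpoints linearly interpolated, else capped at highest concentration. TGI marks complete inhibition of growth.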

As to `O=C1CC(=Nc2ccc(Cl)cc2)C(c2ccccc2)N1c1ccccc1` (centres undefined), the TGI in [1] was 51.6 µM; in assay [2], 65.1 µM; in assay [3], 22.8 µM; in assay [4], over 100 µM; in [5], over 100 µM; in [6], over 100 µM. Moreover, the TGI in assay [7] was over 100 µM; in assay [8], 61.5 µM; in [9] it was 33.8 µM.

As to `O=C1CSC(c2cccc(Oc3ccccc3)c2)N1c1ccc(Cl)cc1` (centres undefined), the TGI is over 100 µM in assay [1]; 37.9 µM in [2]; 25.2 µM in assay [3]; 73.3 µM in assay [5]; over 100 µM in [6]; over 100 µM in [10]. Further, the TGI in [7] is 38.5 µM; in [8], 50.9 µM; in [9] it was over 100 µM.

For the compound `CCN(CC)CCNc1nc2ccc([N+](=O)[O-])cc2[n+]([O-])n1`, the TGI in [2] was 49.6 µM; in assay [3], 22.3 µM; in [4] it was 38.3 µM; in assay [5] it was over 100 µM; in assay [6], over 100 µM; in assay [10] it was 43.1 µM. Besides, the TGI in assay [7] amounted to 9.86 µM; in assay [9] it was 41.2 µM.

`Cc1ccc(/C=C2\CCCc3ccccc3C2=O)cc1`: the TGI in [1] is 58 µM; in assay [2], 29.1 µM; in [4], 49.2 µM; in [6], over 100 µM; in assay [10] it was over 100 µM; in assay [7], 47.3 µM. In addition, the TGI was 30 µM in assay [8] and 20.4 µM in [9].

On to `O=c1[nH]nc(-c2ccccc2)c2[nH]c3c4ccccc4ccc3c12`, for which the TGI in assay [1], in assay [2], in [3], in assay [4], in assay [5] and in assay [7] was over 100 µM throughout. The TGI in [9] is over 100 µM.

For `CC(C)[Si](OC1=C(C(=O)N(C)c2cccc(Cl)c2)CCCC1)(C(C)C)C(C)C`, the TGI in assay [1] stood at 30.6 µM; in assay [3], 34.2 µM; in assay [4] it was 32.3 µM; in assay [5], 18.9 µM; in assay [6] it was 28.6 µM; in [10], 31 µM. In addition, the TGI in assay [7] was 29.2 µM; in assay [8], 32.6 µM; in assay [9] it was 29.3 µM.

Take `CCOC(=O)c1nc2ccc(C(F)(F)F)cc2nc1NCc1cc(OC)c(OC)c(OC)c1`: the TGI in assay [2], in assay [3], in assay [4], in [5], in [6] and in assay [10] was over 100 µM throughout. The TGI in assay [7], in [8] and in assay [9] was over 100 µM each time.

Consider `O=C1CCC(c2ccc(Cl)cc2)=NN1c1nsc2ccccc12`, for which the TGI in assay [2] is 51.2 µM; in [4], over 100 µM; in [5], 59.6 µM; in assay [6], over 100 µM; in [10], over 100 µM.

Turning to `NC(N)=N/N=C/c1c[nH]c2ccccc12`, the TGI in assay [1], in [3], in assay [4], in [5], in [6] and in assay [10] was over 100 µM in each case. Moreover, the TGI in assay [8] and in assay [9] was over 100 µM each time.

Take `O=C(N/N=C/c1ccccc1)c1c(-c2cccnc2)cnc2ccccc12`: the TGI in assay [1], in [2], in assay [3], in assay [4], in assay [5] and in assay [6] was over 100 µM each time. Besides, the TGI in assay [10], in assay [7] and in assay [9] was over 100 µM each time.

As to `COc1cc(/C=C2\C(=O)N(c3ccccc3)C(c3ccccc3)S2(=O)=O)cc(OC)c1OC` (centres undefined), the TGI is over 100 µM in assay [1]; over 100 µM in [2]; over 100 µM in assay [3]; 92.2 µM in [5]; over 100 µM in assay [6]; over 100 µM in [10]. Moreover, the TGI in [7], in assay [8] and in [9] was over 100 µM throughout.

Take `COC(CNC(=O)C(C)NC(=O)CCc1ccccc1)OC` (centres undefined): the TGI in [1], in assay [2], in assay [3], in [4], in [5] and in assay [6] was over 100 µM throughout. Further, the TGI in [10], in [7] and in assay [9] was over 100 µM throughout.

As to `Cc1nc(-c2cc3cc([N+](=O)[O-])ccc3oc2=O)cs1`, the TGI in assay [1], in assay [2], in assay [3], in assay [4], in assay [5] and in assay [6] was over 100 µM throughout. For the same compound, the TGI in [7], in [8] and in assay [9] was over 100 µM throughout.

Turning to `O=C(O)c1ccc([N+](=O)[O-])c2cc3cnccc3nc12`, the TGI in [1] was over 100 µM; in [2] it was 33 µM; in [3] it was 38.4 µM; in assay [4] it was over 100 µM; in assay [5], 74.1 µM; in assay [6] it was 34.8 µM. Further, the results for the TGI in assay [10], in [7] and in assay [9] were 48.9 µM, 38.7 µM and 37.2 µM, respectively.

Turning to `COc1cc(C(=O)N(Cc2cccnc2)C(=S)N(Cc2cccnc2)C(=O)c2cc(OC)c(OC)c(OC)c2)cc(OC)c1OC`, the TGI in [1], in assay [2], in assay [3], in [5], in assay [6] and in [10] was over 100 µM each time. Moreover, the figures for the TGI in [7], in assay [8] and in [9] were 34.9 µM, over 100 µM and over 100 µM, respectively.

As for `CC1(C)NC2C(=O)c3c([nH]c4ccccc34)[C@]3(C)CCC1CC23` (some centres undefined), the TGI in assay [2], in [3], in assay [4], in assay [5], in assay [6] and in assay [10] was over 100 µM in each case. Further, the TGI in [7] and in [8] was over 100 µM in each case.

`N#CC(NC12CC3CC(CC(C3)C1)C2)c1ccccc1C(F)(F)F` (centres undefined): the TGI in [2], in assay [3], in assay [5], in [6], in assay [10] and in assay [8] was over 100 µM each time. Besides, in assay [9], the TGI was over 100 µM.

For the compound `CSc1ncnc2c1ncn2C1CC(Oc2ccc(C)cc2)C(COc2ccc(C)cc2)O1` (centres undefined), the TGI in assay [1], in assay [2], in assay [3], in [4], in assay [6] and in assay [10] was over 100 µM each time. In addition, the TGI in assay [7], in [8] and in assay [9] was over 100 µM throughout.

With `COCN(CCC1=CCCCC1)C(=O)OC`, the TGI in assay [1], in [2], in [3], in assay [4], in assay [5] and in assay [6] was over 100 µM in each case. Further, the TGI in assay [10], in assay [7] and in [9] was over 100 µM in each case.

Consider `COC1C=CC(O)C(CO)O1` (centres undefined), for which the TGI in assay [1], in assay [2], in assay [3], in assay [4], in assay [5] and in assay [6] was over 100 µM in each case. Further, the TGI in assay [10], in assay [8] and in assay [9] was over 100 µM in each case.

With `C=CCCN1CCc2c([nH]c3ccccc23)C1C(=O)O` (centres undefined), the TGI in [1], in assay [2], in assay [3], in assay [4], in [5] and in [6] was over 100 µM throughout. In addition, the TGI in assay [8] and in [9] was over 100 µM each time.

Take `Cc1ccc(SCC(CF)OC(C)n2cnc3c(=O)[nH]c(N)nc32)cc1` (centres undefined): the TGI is over 100 µM in assay [1]; over 100 µM in assay [2]; 47.6 µM in assay [3]; over 100 µM in [4]; over 100 µM in assay [6]; over 100 µM in [10]. For the same compound, the TGI in assay [7], in assay [8] and in [9] was over 100 µM throughout.

For the compound `CC(=O)OC(/C=C/c1ccccc1)=C(OC(C)C)/C1=C(\c2ccccc2)SCCCSC1=O`, the TGI in assay [1], in assay [2], in assay [3], in assay [5], in assay [6] and in assay [10] was over 100 µM in each case. In addition, the TGI in assay [7], in [8] and in assay [9] was over 100 µM throughout.

For the compound `OCC(O)COCn1nncc1Cn1ncc2c(SCc3ccccc3)ncnc21` (centres undefined), the TGI in [1], in [2], in assay [3], in assay [4], in [6] and in assay [10] was over 100 µM throughout. The TGI in assay [7], in assay [8] and in assay [9] was over 100 µM each time.

Regarding `Cc1cccc(N=NC(=O)NNc2cccc(C)c2C)c1C`, the TGI in assay [2] was 72.2 µM; in assay [3], over 100 µM; in assay [4], over 100 µM; in [6], over 100 µM; in [10], over 100 µM; in [8], 60.2 µM. Further, in assay [9], the TGI is over 100 µM.

For the compound `O=C(N/N=C\c1cccc2c([N+](=O)[O-])cccc12)Nc1ccccc1`, the TGI worked out at 16.1 µM in assay [2]; 33.5 µM in assay [3]; 40.1 µM in assay [4]; 26.3 µM in assay [5]; 31.9 µM in assay [6]; 36.8 µM in assay [10]. Moreover, the TGI in [7] is 26.7 µM; in [8] it was 25.4 µM; in assay [9], 29.5 µM.

As to `CC12C(=O)CC(CC1=O)C2(C)C`, the TGI in assay [1], in assay [2], in [3], in assay [4], in assay [6] and in [10] was over 100 µM each time. Moreover, the TGI in assay [7], in [8] and in [9] was over 100 µM in each case.

Regarding `Cc1c(S(=O)(=O)/N=C(\NO)Nc2ccc(Cl)c(Cl)c2)sc2ccc(Cl)cc12`, the TGI was 37 µM in [2]; 31.5 µM in [3]; 34.5 µM in assay [4]; 34 µM in assay [5]; 42.5 µM in [6]; 46.6 µM in assay [10]. For the same compound, the results for the TGI in assay [7], in assay [8] and in [9] were 86.8 µM, 43.3 µM and 44.1 µM, respectively.

As to `CCOC(=O)CNc1c(OCc2ccccc2)c(=O)c1=O`, the TGI in assay [1], in assay [2], in [3], in assay [4], in [5] and in assay [6] was over 100 µM throughout. For the same compound, the TGI in assay [10], in assay [7] and in [9] was over 100 µM each time.

Turning to `CC(=O)OCC12C(=O)C[C@@H](C)C3(CC(c4ccoc4)OC3=O)C1CCC(OC(C)=O)C21CO1` (some centres undefined), the TGI in assay [2], in assay [3], in assay [4], in assay [5], in assay [6] and in assay [10] was over 100 µM throughout. Further, the TGI in assay [7], in [8] and in assay [9] was over 100 µM in each case.

With `Cc1ccc([N+](=O)[O-])cc1S(=O)(=O)Nc1ccc(C2=NNC(c3ccccc3)C2)cc1` (centres undefined), the TGI in assay [1] was 58.8 µM; in assay [2], 33.1 µM; in [3], 30.9 µM; in [4], over 100 µM; in assay [5], 30.4 µM; in [6] it was over 100 µM. Further, the values for the TGI in assay [10], in [7] and in assay [9] were over 100 µM, 43.7 µM and 52.3 µM, respectively.

The values above are taken from PubChem BioAssay (NCI).
